Source: patent publication US20080171737A1 (Wyeth, priority 2006, published 2008)
Structures can show the parent of a compound that is named as a salt.

Each compound was assayed against T1, human hNET (Homo sapiens, UniProt P23975) (assay: Functional norepinephrine reuptake assay, Procedure B (6,000 cells/well)). Conditions: not given.
T1 construct: expressed in transfected cells; host or cells: MDCK-Net6 (MDCK cells stably transfected with hNET)
Format: cell-based
How it was run: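 MDCK cells stably expressing human NET, 6,000 cells/well, in HEPES-buffered saline pH 7.4 with ascorbic acid and 1 μM pargyline; compound preincubated 5 min at 37° C. ^3H norepinephrine uptake counted by scintillation; non-specific defined with 20 μM desipramine. IC50 from variable-slope sigmoidal nonlinear fit.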

T1 sequence (P23975 whole entry): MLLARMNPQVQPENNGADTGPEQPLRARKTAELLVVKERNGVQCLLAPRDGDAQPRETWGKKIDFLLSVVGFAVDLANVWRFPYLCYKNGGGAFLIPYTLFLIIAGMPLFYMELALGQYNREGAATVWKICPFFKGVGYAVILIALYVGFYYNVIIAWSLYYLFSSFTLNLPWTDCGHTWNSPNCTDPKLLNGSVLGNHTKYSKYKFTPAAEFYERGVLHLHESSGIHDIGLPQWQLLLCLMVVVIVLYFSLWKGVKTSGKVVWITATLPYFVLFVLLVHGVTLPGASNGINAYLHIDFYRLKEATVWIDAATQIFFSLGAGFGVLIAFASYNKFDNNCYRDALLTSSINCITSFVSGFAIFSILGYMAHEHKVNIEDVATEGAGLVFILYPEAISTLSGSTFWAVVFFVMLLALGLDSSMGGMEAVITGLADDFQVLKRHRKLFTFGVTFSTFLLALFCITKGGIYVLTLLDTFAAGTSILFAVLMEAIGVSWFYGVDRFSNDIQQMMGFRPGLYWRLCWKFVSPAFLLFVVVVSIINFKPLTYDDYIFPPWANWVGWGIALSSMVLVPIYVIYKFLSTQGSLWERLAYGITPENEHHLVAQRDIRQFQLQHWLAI

Structure (SMILES)	IC50 [µM]
CNCCC[C@H]1Cc2ccccc2N(c2c(F)cccc2F)S1(=O)=O (single isomer, unassigned) [Example 121]	0.052

Same assay, conditions: MDCK-Net6 cells, 6,000 cells/well, 16 nM 3H-norepinephrine; read-out: Procedure B hNET uptake IC50

IC50 [µM]	Structure (SMILES)
1.92	CN(CCCC1Oc2ccccc2N(c2ccccc2)S1(=O)=O)C1CCCCC1 (stereo not shown) [Example 85, N-[3-(2,2-dioxido-1-phenyl-1H-4,2,1-benzoxathiazin-3-yl)propyl]-N-methylcyclo hexanamine Hydrochloride]
0.077	CNC[C@@H](O)C[C@H]1Oc2ccccc2N(c2ccccc2)S1(=O)=O (single isomer, unassigned) [Example 98]
0.322	CNCCC[C@@H]1Cc2cc(F)ccc2N(c2ccc(F)cc2C)S1(=O)=O (single isomer, unassigned) [Example 171]
0.546	CNCC[C@@H](O)[C@@H]1Cc2ccccc2N(c2ccccc2)S1(=O)=O (single isomer, unassigned) [Example 115]
0.0478	CNCCCC1Oc2cc3ccccc3cc2N(c2ccccc2)S1(=O)=O (stereo not shown) [Example 55, 3-(2,2-dioxido-1-phenyl-1H-naphtho[2,3-e][1,3,4]oxathiazin-3-yl)-N-methylpropan-1-amine hydrochloride]
1.5	CNCCCC1Sc2ccccc2N(c2ccc(Cl)cc2)S1(=O)=O (stereo not shown) [Example 67, 3-[1-(4-chlorophenyl)-2,2-dioxido-1H-2,4,1-benzodithiazin-3-yl]-N-methylpropan-1-amine Hydrochloride]
0.031	CNCCCC1Cc2cc(F)ccc2N(c2c(F)cccc2F)S1(=O)=O (racemic) [Example 154, 3-[1-(2,6-difluorophenyl)-6-fluoro-2,2-dioxido-3,4-dihydro-1H-2,1-benzothiazin-3-yl]-N-methylpropan-1-amine]
0.106	CNCCCC1Oc2ccccc2N(c2cccc(F)c2)S1(=O)=O (stereo not shown) [Example 20, 3-[1-(3-fluorophenyl)-2,2-dioxido-1H-4,2,1-benzoxathiazin-3-yl]-N-methylpropan-1-amine]
4.16	CN(C)CCCC1Oc2ccccc2N(c2ccccc2)S1(=O)=O (stereo not shown) [Example 80, 3-(2,2-dioxido-1-phenyl-1H-4,2,1-benzoxathiazin-3-yl)-N,N-dimethylpropan-1-amine hydrochloride]
0.089	CNCCC[C@@H]1Cc2ccccc2N(c2ccccn2)S1(=O)=O (single isomer, unassigned) [Example 128]
0.128	CNCCCC1Cc2cc(F)ccc2N(c2ccccc2Cl)S1(=O)=O (racemic) [Example 157, 3-[1-(2-chlorophenyl)-6-fluoro-2,2-dioxido-3,4-dihydro-1H-2,1-benzothiazin-3-yl]-N-methylpropan-1-amine]
0.143	CNCC[C@H]1Oc2cc(F)ccc2N(c2ccccc2)S1(=O)=O (single isomer, unassigned) [Example 118]
0.788	CN(C)CC1Oc2ccccc2N(c2ccccc2)S1(=O)=O (stereo not shown) [Example 134, 1-(2,2-dioxido-1-phenyl-1H-4,2,1-benzoxathiazin-3-yl)-N,N-dimethylmethanamine]
3.75	CN(C)CCNCC1Oc2ccccc2N(c2ccccc2)S1(=O)=O (stereo not shown) [Example 138, N′-[(2,2-dioxido-1-phenyl-1H-4,2,1-benzoxathiazin-3-yl)methyl]-N,N-dimethylethane-1,2-diamine]
0.049	CNCCC[C@@H]1Cc2ccccc2N(c2ccc(F)cc2F)S1(=O)=O (single isomer, unassigned) [Example 101]
0.085	CNCC[C@@H](O)[C@H]1Cc2ccccc2N(c2ccccc2)S1(=O)=O (single isomer, unassigned) [Example 116]
0.098	CNCCCC1Cc2ccccc2N(c2ccccn2)S1(=O)=O (racemic) [Example 126, 3-(2,2-dioxido-1-pyridin-2-yl-3,4-dihydro-1H-2,1-benzothiazin-3-yl)-N-methylpropan-1-amine]
0.607	CNCCCC1Oc2cc(OC)ccc2N(c2ccccc2)S1(=O)=O (stereo not shown) [Example 52, 3-(6-methoxy-2,2-dioxido-1-phenyl-1H-4,2,1-benzoxathiazin-3-yl)-N-methylpropan-1-amine]
0.114	CNCCCC1Oc2cc(Cl)ccc2N(c2ccccc2)S1(=O)=O (stereo not shown) [Example 45, 3-(6-chloro-2,2-dioxido-1-phenyl-1H-4,2,1-benzoxathiazin-3-yl)-N-methylpropan-1-amine]
0.492	CNCCCC1Oc2ccccc2N(c2ccc(F)cc2)S1(=O)=O (stereo not shown) [Example 15, 3-[1-(4-fluorophenyl)-2,2-dioxido-1H-4,2,1-benzoxathiazin-3-yl]-N-methylpropan-1-amine]

IC50 [µM]	Structure (SMILES)
0.587	CNCCC[C@H]1Cc2cc(F)ccc2N(c2ccccc2OC)S1(=O)=O (single isomer, unassigned) [Example 167]
0.465	CNCCCC1Sc2ccccc2N(c2cccc(C)c2)S1(=O)=O (stereo not shown) [Example 60, N-methyl-3-[1-(3-methylphenyl)-2,2-dioxido-1H-2,4,1-benzodithiazin-3-yl]propan-1-amine Hydrochloride]
1	CNCCCC1Sc2ccccc2N(c2ccc(F)cc2)S1(=O)=O (stereo not shown) [Example 64, 3-[1-(4-fluorophenyl)-2,2-dioxido-1H-2,4,1-benzodithiazin-3-yl]-N-methylpropan-1-amine Hydrochloride]
0.043	CNCCC[C@@H]1Cc2cc(F)ccc2N(c2cc(F)ccc2F)S1(=O)=O (single isomer, unassigned) [Example 153]
0.163	CNCCC1Oc2ccccc2N(c2ccccc2)S1(=O)=O (stereo not shown) [Example 25, 2-(2,2-dioxido-1-phenyl-1H-4,2,1-benzoxathiazin-3-yl)-N-methylethanamine]
1.71	CNCCC[C@H]1Cc2ccccc2N(c2cccnc2)S1(=O)=O (single isomer, unassigned) [Example 124]
0.114	CNCCCC1Oc2ccc(C)cc2N(c2ccccc2)S1(=O)=O (stereo not shown) [Example 50, N-methyl-3-(7-methyl-2,2-dioxido-1-phenyl-1H-4,2,1-benzoxathiazin-3-yl)propan-1-amine]
1.27	NCC[C@H]1Oc2ccccc2N(c2ccccc2)S1(=O)=O (single isomer, unassigned) [Example 102]
0.256	CNCCCC1Cc2ccccc2N(c2cccnc2)S1(=O)=O (racemic) [Example 123, 3-(2,2-dioxido-1-pyridin-3-yl-3,4-dihydro-1H-2,1-benzothiazin-3-yl)-N-methylpropan-1-amine]
0.0971	CN(C)CCC1Oc2ccccc2N(c2ccccc2)S1(=O)=O (stereo not shown) [Example 26, 2-(2,2-dioxido-1-phenyl-1H-4,2,1-benzoxathiazin-3-yl)-N,N-dimethylethanamine]
0.361	CNCCCC1Oc2ccccc2N(c2cccc(C)c2)S1(=O)=O (stereo not shown) [Example 16, N-methyl-3-[1-(3-methylphenyl)-2,2-dioxido-1H-4,2,1-benzoxathiazin-3-yl]propan-1-amine]
4.57	CNCCCC1Oc2ccccc2N(c2ccc3ccccc3c2)S1(=O)=O (stereo not shown) [Example 21, N-methyl-3-[1-(2-naphthyl)-2,2-dioxido-1H-4,2,1-benzoxathiazin-3-yl]propan-1-amine]
0.059	CNCCC[C@H]1Cc2ccccc2N(c2ccccc2F)S1(=O)=O (single isomer, unassigned) [Example 90]
0.045	CNCCC[C@@H]1Oc2cc(F)ccc2N(c2ccccc2F)S1(=O)=O (single isomer, unassigned) [Example 130, Hydrochloride]
0.074	CNCCC[C@@H]1Oc2cc(F)ccc2N(c2ccccc2)S1(=O)=O (single isomer, unassigned) [Example 107]
0.0177	CNCCCC1Cc2ccccc2N(c2ccccc2F)S1(=O)=O (stereo not shown) [Example 73, 3-[1-(2-fluorophenyl)-2,2-dioxido-3,4-dihydro-1H-2,1-benzothiazin-3-yl]-N-methylpropan-1-amine Hydrochloride]
0.494	CNCC[C@@H]1Oc2cc(F)ccc2N(c2ccccc2)S1(=O)=O (single isomer, unassigned) [Example 119]
0.031	CNCCCC1Cc2cc(F)ccc2N(c2cc(F)ccc2F)S1(=O)=O (racemic) [Example 151, 3-[1-(2,5-difluorophenyl)-6-fluoro-2,2-dioxido-3,4-dihydro-1H-2,1-benzothiazin-3-yl]-N-methylpropan-1-amine]
2.02	CNCCCC1Sc2ccccc2N(c2cccc(Cl)c2)S1(=O)=O (stereo not shown) [Example 66, 3-[1-(3-chlorophenyl)-2,2-dioxido-1H-2,4,1-benzodithiazin-3-yl]-N-methylpropan-1-amine Hydrochloride]

Same assay, conditions: MDCK-Net6 cells, 6,000 cells/well; Conc 6000 nM (6 μM); read-out: Procedure B hNET uptake (% inhibition)

inhibition at 6 µM [%]	Structure (SMILES)
62	CN(CCCC1Oc2ccccc2N(c2ccccc2)S1(=O)=O)C1CCCCC1 (stereo not shown) [Example 85, N-[3-(2,2-dioxido-1-phenyl-1H-4,2,1-benzoxathiazin-3-yl)propyl]-N-methylcyclo hexanamine Hydrochloride]
41	CNCCCC1Oc2ccccc2N(c2cnc3ccccc3c2)S1(=O)=O (stereo not shown) [Example 57, 3-(2,2-dioxido-1-quinolin-3-yl-1H-4,2,1-benzoxathiazin-3-yl)-N-methylpropan-1-amine]
27	CC(C)N(C)CCCC1Oc2ccccc2N(c2ccccc2)S1(=O)=O (stereo not shown) [Example 84, 3-(2,2-dioxido-1-phenyl-1H-4,2,1-benzoxathiazin-3-yl)-N-isopropyl-N-methylpropan-1-amine Hydrochloride]
27	CCN(C)CCCC1Oc2ccccc2N(c2ccccc2)S1(=O)=O (stereo not shown) [Example 81, 3-(2,2-dioxido-1-phenyl-1H-4,2,1-benzoxathiazin-3-yl)-N-ethyl-N-methylpropan-1-amine hydrochloride]
57	CCCCNCCCC1Oc2ccccc2N(c2ccccc2)S1(=O)=O (stereo not shown) [Example 36, N-[3-(2,2-dioxido-1-phenyl-1H-4,2,1-benzoxathiazin-3-yl)propyl]butan-1-amine]
21	CC1CN(CCC2Oc3ccccc3N(c3ccccc3)S2(=O)=O)CC(C)N1 (stereo not shown) [Example 79, 3-[2-(3,5-dimethylpiperazin-1-yl)ethyl]-1-phenyl-1H-4,2,1-benzoxathiazine 2,2-dioxide hydrochloride]
